Experimental data: US10202366B2, “Methods of promoting wound healing using CRM1 inhibitors” (Karyopharm Therapeutics Inc., priority 2013, dated 2019)
pIC50: −log10 of the molar value.

Tested on: MM1.S cells
Assay: MTT cell proliferation assay
Type: cell-based
Conditions: Homo sapiens
Procedure: The MTT cell proliferation assay was used to study the cytotoxic properties of certain compounds. The assay was performed according to the method described by Roche Molecular Biochemicals, with minor modifications. The assay is based on the cleavage of the tetrazolium salt, MTT, in the presence of an electron-coupling reagent. The water-insoluble formazan salt produced must be solubilized in an additional step. Cells grown in a 96-well tissue culture plate were incubated with the MTT solution for approximately 4 hours. After this incubation period, a water-insoluble formazan dye formed. After solubilization, the formazan dye was quantitated using a scanning multi-well spectrophotometer (ELISA reader). […] The cells were seeded at 5,000-10,000 cells in each well of 96-well plate in 100 μL of fresh culture medium and were allowed to attach overnight. The stock solutions of the compounds were diluted in 100 μL cell culture medium to obtain eight concentrations of each test compound, ranging from 1 nM to 30 μM. […] All optical densities were measured at 490 nm using a Vmax Kinetic Microplate Reader (Molecular Devices). In most cases, the assay was performed in duplicate and the results were presented as a mean percent inhibition to the negative control±SE. The following formula was used to calculate the percent of inhibition: Inhibition (%)=(1−(ODo/OD))×100. […]

| Compound | pIC50 |
| --- | --- |
| CC(C)Oc1cc(-c2ncn(/C=C\C(=O)OCc3cncnc3)n2)cc(C(F)(F)F)c1 [Compound 129, Pyrimidin-5-Ylmethyl (Z)-3-(3-(3-Isopropoxy-5-(Trifluoromethyl)Phenyl)-1H-1,2,4-Triazol-1-Yl)Acrylate] | 7.70 |
| CC(C)Oc1cc(-c2ncn(/C=C\C(=O)OCc3cnccn3)n2)cc(C(F)(F)F)c1 [Compound 130, Pyrazin-2-Ylmethyl (Z)-3-(3-(3-Isopropdxy-5-(Trifluoromethyl)Phenyl)-1h-1,2,4-Triazol-1-Yl)Acrylate] | 8.40 |
